For this experiment, the target named is EGFR (UniProt P00533).

Where only a bound is given, the exact number is not on record here.

Chain of EGFR (P00533 whole entry, looked up): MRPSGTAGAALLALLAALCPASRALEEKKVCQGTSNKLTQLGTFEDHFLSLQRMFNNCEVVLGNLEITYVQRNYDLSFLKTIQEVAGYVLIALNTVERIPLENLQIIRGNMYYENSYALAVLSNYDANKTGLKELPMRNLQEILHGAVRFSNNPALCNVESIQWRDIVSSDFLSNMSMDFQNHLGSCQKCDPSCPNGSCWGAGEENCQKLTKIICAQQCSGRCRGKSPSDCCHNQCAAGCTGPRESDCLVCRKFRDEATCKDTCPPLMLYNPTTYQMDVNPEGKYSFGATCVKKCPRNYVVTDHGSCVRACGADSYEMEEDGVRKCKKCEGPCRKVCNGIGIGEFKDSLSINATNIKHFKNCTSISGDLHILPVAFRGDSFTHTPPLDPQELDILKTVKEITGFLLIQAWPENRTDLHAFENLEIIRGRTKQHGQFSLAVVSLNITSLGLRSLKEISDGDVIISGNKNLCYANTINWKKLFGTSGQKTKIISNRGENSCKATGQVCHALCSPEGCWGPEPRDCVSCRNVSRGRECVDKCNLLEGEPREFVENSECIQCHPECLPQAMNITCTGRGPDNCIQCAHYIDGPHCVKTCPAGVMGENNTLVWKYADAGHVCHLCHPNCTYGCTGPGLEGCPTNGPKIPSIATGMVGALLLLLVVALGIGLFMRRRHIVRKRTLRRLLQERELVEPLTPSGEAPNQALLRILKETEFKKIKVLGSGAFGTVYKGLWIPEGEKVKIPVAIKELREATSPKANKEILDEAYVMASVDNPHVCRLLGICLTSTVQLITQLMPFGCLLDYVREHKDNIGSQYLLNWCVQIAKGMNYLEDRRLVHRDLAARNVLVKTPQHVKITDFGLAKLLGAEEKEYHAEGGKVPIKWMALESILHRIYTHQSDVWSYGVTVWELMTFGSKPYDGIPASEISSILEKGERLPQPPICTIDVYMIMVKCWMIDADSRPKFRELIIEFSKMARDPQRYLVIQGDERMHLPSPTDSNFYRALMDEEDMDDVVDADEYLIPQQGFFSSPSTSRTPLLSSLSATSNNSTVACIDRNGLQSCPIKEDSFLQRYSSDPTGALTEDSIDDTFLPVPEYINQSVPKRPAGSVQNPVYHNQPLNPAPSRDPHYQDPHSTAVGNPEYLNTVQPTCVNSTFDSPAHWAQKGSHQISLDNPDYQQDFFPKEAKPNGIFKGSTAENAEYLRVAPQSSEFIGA

One may read the IC50 as the concentration that inhibits the measured activity by half. Low readings indicate greater potency, high ones weaker potency. Regarding `CCNC(=NC#N)N1CCOC(COc2cc3ncnc(Nc4ccc(Cl)c(Cl)c4)c3cc2OC)C1` (configuration not stated), the IC50 is below 50 nM.
The same measure for `COc1cc2c(Nc3cccc(Br)c3C)ncnc2cc1OCC1CN(C)CCO1` (configuration not stated): below 50 nM.
Consider `COc1cc2c(Nc3cc(Cl)ccc3F)ncnc2cc1O[C@@H]1CO[C@@H]2[C@H]1OC[C@H]2F`, for which the IC50 is below 50 nM.
In the case of `CCCCCC(=O)N1CCOC(COc2cc3ncnc(Nc4ccc(Cl)c(Cl)c4)c3cc2OC)C1` (configuration not stated), the IC50 is below 50 nM.
`COc1cc2c(Nc3ccc(Cl)c(Cl)c3F)ncnc2cc1OC[C@H]1C[C@@H]2CN(C)C[C@@H]2C1` had an IC50 below 50 nM.
The same measure for `COc1cc2c(Nc3ccc(Cl)c(Cl)c3)ncnc2cc1OCC1CN(C(=O)CC(=O)O)CCO1` (configuration not stated): below 50 nM; for `COc1cc2c(Nc3ccc(Cl)c(Cl)c3)ncnc2cc1OC[C@@H]1O[C@@H](OC)[C@@H](O)[C@@H](O)[C@H]1O`: below 50 nM.
The same measure for `COc1cc2c(Nc3ccc(Cl)c(Cl)c3)ncnc2cc1OCc1csc(C2CCNCC2)n1`: below 50 nM.
Consider `COc1cc2c(Nc3ccc(Cl)c(Cl)c3)ncnc2cc1OCc1nc([C@@H]2CCCN2C)no1`, for which the IC50 is below 50 nM.
For `COc1cc2c(Nc3ccc(Cl)c(Cl)c3)ncnc2cc1OCc1cc(F)cc2c1OCOC2` the value was below 50 nM.
The same measure for `CCC(=O)N1CCOC(COc2cc3ncnc(Nc4ccc(Cl)c(Cl)c4)c3cc2OC)C1` (configuration not stated): below 50 nM; for `COc1cc2c(Nc3ccc(Cl)cc3Cl)ncnc2cc1OCC1CN(C)CCO1` (configuration not stated): below 50 nM; for `COc1cc2c(Nc3ccc(Cl)c(Cl)c3)ncnc2cc1OCCN1C(=O)c2ccccc2C1=O`: below 50 nM.
For the compound `CCN1CCCC(c2nc(COc3cc4ncnc(Nc5ccc(Cl)c(Cl)c5)c4cc3OC)no2)C1` (configuration not stated), the half-inhibitory concentration (IC50) is below 50 nM.
The same measure for `COc1cc2c(Nc3ccc(Br)c(Cl)c3)ncnc2cc1O[C@H]1CO[C@@H]2[C@H]1OC[C@@H]2N(C)C`: below 50 nM; for `COc1cc2c(Nc3ccc(Cl)c(Cl)c3)ncnc2cc1OCC1CN(C(=O)Cc2ccc(Cl)cc2)CCO1` (configuration not stated): below 50 nM; for `COc1cc2c(Nc3ccc(Cl)c(Cl)c3)ncnc2cc1OCc1nc(N2CCOCC2)no1`: below 50 nM.
The same measure for `COc1cc2c(Nc3ccc(Cl)c(Cl)c3)ncnc2cc1OCC1CN(S(=O)(=O)CCCCl)CCO1` (configuration not stated): below 50 nM; for `CCCCC(CC)C(=O)N1CCOC(COc2cc3ncnc(Nc4ccc(Cl)c(Cl)c4)c3cc2OC)C1` (configuration not stated): below 50 nM; for `COc1cc2c(Nc3ccc(Cl)c(Cl)c3F)ncnc2cc1OC[C@@H]1CN2CCCC[C@H]2C(=O)N1`: below 50 nM.
For the compound `COc1cc2c(Nc3ccc(Cl)c(Cl)c3)ncnc2cc1OCc1nc(N2CCN(C(=O)OC(C)(C)C)CC2)no1`, the IC50 was below 50 nM.
`COc1cc2c(Nc3ccc(Cl)c(Cl)c3F)ncnc2cc1OC[C@@H]1CN2CCOC[C@H]2CO1` had an IC50 below 50 nM.
The same measure for `COc1cc2c(Nc3ccc(Cl)c(Cl)c3)ncnc2cc1OC1CCCC1`: below 50 nM.
`COc1cc2c(Nc3ccc(Cl)c(Cl)c3)ncnc2cc1OCc1nc(-c2cccnc2)cs1` yielded a half-maximal inhibitory concentration (IC50) below 50 nM.
The same measure for `COc1cc2c(Nc3ccccc3Br)ncnc2cc1O[C@@H]1CO[C@@H]2[C@H]1OC[C@H]2F`: below 50 nM.
Take `COc1cc2c(Nc3ccc(Br)c(Cl)c3F)ncnc2cc1OCC1CO[C@@H]2[C@@H](OC)CO[C@H]12` (some centres not stated): the IC50 is below 50 nM.
The same measure for `COc1cc2c(Nc3ccc(Br)c(Cl)c3Cl)ncnc2cc1OCC1CN(C)C(C)(C)CO1` (configuration not stated): below 50 nM; for `CCO[C@H]1CO[C@H]2[C@@H]1OC[C@@H]2Oc1cc2ncnc(Nc3ccc(Br)c(Cl)c3)c2cc1OC`: below 50 nM.
The same measure for `COc1cc2c(Nc3ccc(Cl)c(Cl)c3)ncnc2cc1OCc1csc(N2CCOCC2)n1`: below 50 nM.
Compound `COc1cc2c(Nc3ccc(Br)c(Cl)c3Cl)ncnc2cc1OC[C@@H]1CN2CCC[C@H]2CO1` came in with an IC50 below 50 nM.
For `COc1cc2c(Nc3ccc(Cl)c(Cl)c3)ncnc2cc1O[C@@H]1CO[C@@H]2[C@H]1OC[C@H]2F` the value was below 50 nM; for `COc1cc2c(Nc3ccc(Cl)c(Cl)c3)ncnc2cc1OCC1CN(CCc2ccccc2)CCO1` (configuration not stated), below 50 nM.
The same measure for `COc1cc2c(Nc3cc(C(F)(F)F)ccc3Cl)ncnc2cc1O[C@@H]1CO[C@@H]2[C@H]1OC[C@H]2F`: below 50 nM; for `C=CCCCN1CCOC(COc2cc3ncnc(Nc4ccc(Cl)c(Cl)c4)c3cc2OC)C1` (configuration not stated): below 50 nM; for `CCCCCCCN1CCOC(COc2cc3ncnc(Nc4ccc(Cl)c(Cl)c4)c3cc2OC)C1` (configuration not stated): below 50 nM.
In turn, `COc1cc2c(Nc3ccc(Cl)c(Cl)c3)ncnc2cc1OCC1CN(C(C)C(C)=O)CCO1` (configuration not stated) came in with an IC50 below 50 nM.
The same measure for `CCN1CCN(C)CC1COc1cc2ncnc(Nc3ccc(Cl)c(Cl)c3)c2cc1OC` (configuration not stated): below 50 nM; for `COc1cc2c(Nc3cc(Cl)c(Cl)cc3F)ncnc2cc1OCC1CN(C)CCO1` (configuration not stated): below 50 nM.
On to `COc1cc2c(Nc3ccc(Cl)c(Cl)c3)ncnc2cc1OCc1nc(-c2ccc(C(C)(C)C)cc2)no1`, for which the IC50 lay in the range of 50 to 1000 nM.
The same measure for `COc1cc2c(Nc3cc(F)c(Br)c(F)c3)ncnc2cc1OCC1CN(C)CCO1` (configuration not stated): below 50 nM.
The same measure for `COc1cc2c(Nc3ccc(Cl)c(Cl)c3)ncnc2cc1OCc1csc([C@@H]2CCCN2C)n1`: below 50 nM; for `COc1cc2c(Nc3ccc(Cl)c(Cl)c3)ncnc2cc1OCC1CN(C(=O)c2ccc3c(c2)OCO3)CCO1` (configuration not stated): below 50 nM.
For `CCN(CC)c1ccc(-c2csc(COc3cc4ncnc(Nc5ccc(Cl)c(Cl)c5)c4cc3OC)n2)cc1` the value was below 50 nM.
Compound `COc1cc2c(Nc3ccc(Cl)c(Cl)c3N3CCN(C)CC3)ncnc2cc1O[C@H]1CO[C@@H]2[C@H]1OC[C@@H]2F` gave an IC50 below 50 nM.
For `COc1cc2c(Nc3ccc(Cl)c(Cl)c3)ncnc2cc1OCC1CN(CCO)CCO1` (configuration not stated) the value was below 50 nM.
On to `COc1cc2c(Nc3ccc(Cl)c(Cl)c3)ncnc2cc1OC[C@@H]1CN2CCC[C@@H]2CO1`, for which the IC50 is below 50 nM.
Consider `COc1cc2c(Nc3ccc(Cl)c(Cl)c3)ncnc2cc1OCc1c(F)cccc1F`, for which the half-maximal inhibitory concentration (IC50) is below 50 nM.
Compound `COc1cc2c(Nc3ccc(Br)c(Cl)c3)ncnc2cc1O[C@H]1CO[C@H]2[C@@H]1OCC21OCCO1` came in with an IC50 below 50 nM.
On to `COc1cc2c(Nc3ccc(Cl)c(Cl)c3)ncnc2cc1OCc1nc(N2CCNCC2)no1`, for which the IC50 is below 50 nM.
Compound `COc1ccc(-c2nc(COc3cc4ncnc(Nc5ccc(Cl)c(Cl)c5)c4cc3OC)no2)cc1` yielded an IC50 below 50 nM.
The same measure for `COc1cc2c(Nc3c(F)cc(F)cc3Br)ncnc2cc1O[C@@H]1CO[C@@H]2[C@H]1OC[C@H]2F`: below 50 nM; for `COc1cc2c(Nc3ccc(Cl)c(Cl)c3)ncnc2cc1OCC1CN(C(C)=O)CCCO1` (configuration not stated): below 50 nM.
In turn, `COCCN1CCOC(COc2cc3ncnc(Nc4ccc(Cl)c(Cl)c4)c3cc2OC)C1` (configuration not stated) showed an IC50 below 50 nM.
The same measure for `COc1cc2c(Nc3ccc(Cl)c(Cl)c3)ncnc2cc1OCCC1CC2CCC(C1)N2C` (configuration not stated): below 50 nM.
`COc1cc2c(Nc3cccc(F)c3F)ncnc2cc1O[C@@H]1CO[C@@H]2[C@H]1OC[C@H]2F` yielded an IC50 below 50 nM.
For `COc1cc2c(Nc3ccc(Cl)c(Cl)c3)ncnc2cc1OCc1nc(N2CCN(C)CC2)no1` the value was below 50 nM; for `COc1cc2c(Nc3ccc(Cl)c(Cl)c3)ncnc2cc1OCC1CN(C(C)=O)CCO1` (configuration not stated), below 50 nM.
Regarding `COc1cc2c(Nc3ccc(Cl)c(Cl)c3C)ncnc2cc1OCC1CN(C)CCO1` (configuration not stated), the IC50 is below 50 nM.
With `COc1cc2c(Nc3ccc(Cl)cc3F)ncnc2cc1OCC1CN(C)CCO1` (configuration not stated), the IC50 was below 50 nM.
In turn, `COc1cc2c(Nc3ccc(Br)c(Cl)c3Cl)ncnc2cc1OC[C@@H]1CN2CCOC[C@H]2CO1` yielded an IC50 below 50 nM.
For the compound `COc1cc2c(Nc3ccc(Cl)c(Cl)c3)ncnc2cc1OCC1CN(CCC(C)C)CCCO1` (configuration not stated), the IC50 is below 50 nM.
The same measure for `COc1cc2c(Nc3ccc(Cl)c(Cl)c3)ncnc2cc1OCc1csc(CN2CCCC2)n1`: below 50 nM.
Regarding `COc1cc2c(Nc3ccc(F)c(Cl)c3F)ncnc2cc1OC[C@@H]1CN2CCC[C@H]2CO1`, the IC50 is below 50 nM.
The compound `COc1cc2c(Nc3cccc(Cl)c3F)ncnc2cc1OCC1CN(C)CCO1` (configuration not stated) yielded an IC50 below 50 nM.
The same measure for `COc1cc2c(Nc3ccc(Cl)c(Cl)c3)ncnc2cc1OCc1cscn1`: below 50 nM; for `COc1cc2c(Nc3ccc(Cl)c(Cl)c3)ncnc2cc1OCc1csc(N(C)C)n1`: below 50 nM.
The same measure for `COc1cc2c(Nc3cc(Cl)c(Cl)cc3F)ncnc2cc1O[C@H]1CO[C@H]2[C@@H]1OC[C@@H]2OC`: below 50 nM; for `COc1cc2c(Nc3ccc(Cl)c(Cl)c3)ncnc2cc1OCC1CN(CCC2OCCCO2)CCO1` (configuration not stated): below 50 nM; for `COc1cc2c(Nc3cccc(Br)c3Cl)ncnc2cc1OCC1CN(C)CCO1` (configuration not stated): below 50 nM.
Compound `CCCCS(=O)(=O)N1CCOC(COc2cc3ncnc(Nc4ccc(Cl)c(Cl)c4)c3cc2OC)C1` (configuration not stated) had an IC50 below 50 nM.
The compound `COc1cc2c(Nc3ccc(Cl)c(Cl)c3)ncnc2cc1OCCN1CCCC1` yielded a 50% inhibitory concentration (IC50) below 50 nM.
`COc1cc2c(Nc3cc(F)c(F)cc3F)ncnc2cc1O[C@@H]1CO[C@@H]2[C@H]1OC[C@H]2F` gave an IC50 below 50 nM.
The compound `COc1cc2c(Nc3ccc(F)c(F)c3F)ncnc2cc1O[C@@H]1CO[C@@H]2[C@H]1OC[C@H]2F` showed an IC50 below 50 nM.
The same measure for `C=CCCCCN1CCOC(COc2cc3ncnc(Nc4ccc(Cl)c(Cl)c4)c3cc2OC)C1` (configuration not stated): below 50 nM; for `CCCN1CCOC(COc2cc3ncnc(Nc4ccc(Cl)c(Cl)c4)c3cc2OC)C1` (configuration not stated): below 50 nM.
Consider `COc1cc2c(Nc3ccc(Cl)c(Cl)c3)ncnc2cc1OCc1csc(N2CCNCC2)n1`, for which the IC50 was below 50 nM.
On to `COc1cc2c(Nc3ccc(Cl)c(Cl)c3)ncnc2cc1OCC1CN(CC2CCCCC2)CCO1` (configuration not stated), for which the IC50 was below 50 nM.
`CCN1CCN(c2noc(COc3cc4ncnc(Nc5ccc(Cl)c(Cl)c5)c4cc3OC)n2)CC1`: the IC50 is below 50 nM.
The compound `COc1cc2c(Nc3ccc(Cl)c(Cl)c3)ncnc2cc1OCCC1CN(C)C(C)(C)CO1` (configuration not stated) returned an IC50 below 50 nM.
The compound `CCN1CCC[C@H]1c1noc(COc2cc3ncnc(Nc4ccc(Cl)c(Cl)c4)c3cc2OC)n1` registered an IC50 below 50 nM.
The same measure for `COc1cc2c(Nc3cccc(Cl)c3C)ncnc2cc1OCC1CN(C)CCO1` (configuration not stated): below 50 nM.
As to `COc1cc2c(Nc3ccc(Cl)c(Cl)c3)ncnc2cc1OCC1CN(S(=O)(=O)c2ccc(F)cc2)CCO1` (configuration not stated), the IC50 was below 50 nM.

The values above are taken from the Kinase Knowledgebase extract (Sharma et al. 2016).
